# Active and inactive are the calls of the source.
# Experiments:
# [1] = target: Paired box protein Pax-8 (Homo sapiens, UniProt Q06710); test: inhibitors of PAX8-driven TPO luciferase reporter, dose response, RMG-I cells, cherry-pick (AID 687027); format: functional, cell-based;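 note: luciferase reporter driven by Pax8 target thyroperoxidase promoter measured by SteadyGlo luminescence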
# [2] = A549 cell cytotoxicity, dose response, cytotoxicity control, plate reader, cherry-pick, antagonist series (AID 743412); format: functional, cell-based
# [3] = HepG2 cell cytotoxicity, dose response, cytotoxicity control, plate reader, cherry-pick, antagonist series (AID 743416); format: functional, cell-based
# [4] = LGR2 antagonists, dose response, cell-based, HEK293, CRE-luciferase reporter, cherry pick, set 2 (AID 743343); format: functional;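 note: transfected cells were stimulated with diluted bursicon conditioned medium after compound addition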
# [5] = MC4R antagonists, dose response, counter-screen for LGR2 antagonist project, cell-based, plate reader, cherry pick (AID 743444); format: functional;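 note: transfected HEK 293 cells stimulated with alpha-MSH peptide; potency of inhibitors of the alpha-MSH evoked signal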
# [6] = HEK293 cell cytotoxicity, dose response, cytotoxicity control, plate reader, cherry-picked samples (AID 743446); format: functional, cell-based
# [7] = non-specific cell cytotoxicity, dose response, cytotoxicity control for PAX8 inhibitor project, plate reader, dry powder samples (AID 743021); format: functional, cell-based
# [8] = cytotoxicity in OVCAR8 ovarian cancer cells, dose response, PAX8 project, cell-based, plate reader, dry powder samples (AID 743197); format: functional; conditions: OVCAR-8
# [9] = cells; format: functional
# [10] = target: T1, High affinity choline transporter 1 (Homo sapiens, UniProt Q9GZV3); test: CHT inhibitors, dose response, cell-based, 5-point CRC, membrane potential dye (AID 504840); format: functional
# T1 sequence (Q9GZV3 whole entry): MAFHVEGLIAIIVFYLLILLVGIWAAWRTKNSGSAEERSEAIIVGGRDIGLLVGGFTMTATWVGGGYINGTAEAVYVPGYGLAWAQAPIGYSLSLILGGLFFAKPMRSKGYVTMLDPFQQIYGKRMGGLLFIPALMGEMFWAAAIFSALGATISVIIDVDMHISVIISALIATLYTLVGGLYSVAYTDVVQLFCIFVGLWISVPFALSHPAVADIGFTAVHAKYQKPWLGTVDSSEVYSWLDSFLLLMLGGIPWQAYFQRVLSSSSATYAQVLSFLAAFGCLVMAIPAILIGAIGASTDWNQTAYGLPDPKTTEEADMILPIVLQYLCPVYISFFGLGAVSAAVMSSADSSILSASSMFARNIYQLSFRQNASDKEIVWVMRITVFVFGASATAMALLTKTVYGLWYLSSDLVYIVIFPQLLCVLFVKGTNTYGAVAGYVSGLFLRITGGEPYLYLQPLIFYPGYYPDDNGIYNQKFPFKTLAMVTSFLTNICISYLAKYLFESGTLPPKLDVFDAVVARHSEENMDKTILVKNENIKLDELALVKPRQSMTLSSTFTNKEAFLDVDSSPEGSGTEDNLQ
# [11] = Vero E6 cell cytotoxicity, dose response, cytotoxicity control for non-replicating M. tuberculosis project, secondary assay (AID 492998); format: functional, VeroE6; conditions: Vero C1008
# [12] = THP-1 cell cytotoxicity, dose response, cytotoxicity control for non-replicating M. tuberculosis project (AID 489025); format: functional
# [13] = microbe, parasite or virus in culture; format: functional; conditions: Mycobacterium tuberculosis
# [14] = NIH-3T3 fibroblast cytotoxicity, dose response, cytotoxicity control, cell-based, fluorescence, Alamar Blue, secondary assay (AID 2327); format: functional;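 note: NIH-3T3 mouse fibroblasts cultured with fluconazole at 8 µg/mL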
# [15] = C. albicans growth with fluconazole, confirmation, fluorescence, retest (AID 2467); format: functional, cell-based
# [16] = target: Mitogen-activated protein kinase 10 (Homo sapiens, UniProt P53779); test: Dose response biochemical screening assay for inhibitors of c-Jun N-Terminal Kinase 3 (JNK3). [Related pubchem assays: 746 ]
# [17] = target: T2, Mannose-6-phosphate isomerase (Homo sapiens, UniProt P34949); test: human PMI inhibitors, high substrate, primary screen, biochemical, fluorescence intensity, high mannose 6-phosphate (AID 1220)
# T2 sequence (P34949 whole entry): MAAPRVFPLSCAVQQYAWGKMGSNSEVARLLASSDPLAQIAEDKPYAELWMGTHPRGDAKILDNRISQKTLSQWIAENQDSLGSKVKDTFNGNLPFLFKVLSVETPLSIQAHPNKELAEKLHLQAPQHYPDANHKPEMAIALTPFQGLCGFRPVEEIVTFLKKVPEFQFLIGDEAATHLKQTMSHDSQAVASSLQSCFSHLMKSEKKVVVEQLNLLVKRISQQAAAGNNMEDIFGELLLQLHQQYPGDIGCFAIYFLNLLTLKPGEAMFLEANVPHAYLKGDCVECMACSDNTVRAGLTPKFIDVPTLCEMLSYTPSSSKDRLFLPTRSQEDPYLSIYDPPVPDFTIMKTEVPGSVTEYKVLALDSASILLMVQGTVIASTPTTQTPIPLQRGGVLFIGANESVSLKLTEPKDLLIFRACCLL
# [18] = Luminescence Cell-Based Dose Confirmation HTS to Identify Inhibitors of Platelet Dense Granule Release. [Related pubchem assays: 1663 (Primary HTS), 1678 (Summary of Project)]; format: functional
# [19] = inhibitors of HIV Env-driven cell fusion, dose response, cherry-pick (AID 652057); format: functional, cell-based
# [20] = ZM109 Env clade C HIV-1 fusion inhibitors, dose response, HeLa effector, CEM target cells, luciferase, cherry-pick (AID 652058); format: functional, cell-based
# [21] = off-target signal loss in HeLa-CEM21 co-culture – HeLa F-luc CTL cells, cherry-picked, counter-screen for HIV-1 Env fusion inhibitor project, dose response (AID 652040); format: functional, cell-based;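 note: potency for signal decrease marking cytotoxic or nonspecific inhibition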
# [22] = target: Luciferin 4-monooxygenase (Photinus pyralis, UniProt P08659); test: firefly luciferase enzyme inhibitors, dose response, biochemical, luminescence (AID 1891)
# [23] = CEM21 lymphoblast cell cytotoxicity, dose response, cytotoxicity control for viral fusion inhibitor project, CellTiter-Glo luminescence, cherry-picked (AID 652042); format: functional, cell-based;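 note: potency for signal decrease meaning cytotoxicity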
# [24] = inhibitors of clade B AD8 Env fusion, dose response, cell-based, cherry-pick (AID 652062); format: functional;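 note: luciferase signal from cell-cell fusion driven by HIV-1 clade B AD8 Env; potency is for inhibitors of fusion seen as a drop in luminescence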
# [25] = target: T3, Microphthalmia-associated transcription factor (Homo sapiens, UniProt O75030); test: TRPM1 promoter luciferase signal decrease, dose response, MITF inhibitor project, cell-based, SK-MEL-5, cherry-picked, set 3 (AID 493073); format: functional
# T3 sequence (O75030 whole entry): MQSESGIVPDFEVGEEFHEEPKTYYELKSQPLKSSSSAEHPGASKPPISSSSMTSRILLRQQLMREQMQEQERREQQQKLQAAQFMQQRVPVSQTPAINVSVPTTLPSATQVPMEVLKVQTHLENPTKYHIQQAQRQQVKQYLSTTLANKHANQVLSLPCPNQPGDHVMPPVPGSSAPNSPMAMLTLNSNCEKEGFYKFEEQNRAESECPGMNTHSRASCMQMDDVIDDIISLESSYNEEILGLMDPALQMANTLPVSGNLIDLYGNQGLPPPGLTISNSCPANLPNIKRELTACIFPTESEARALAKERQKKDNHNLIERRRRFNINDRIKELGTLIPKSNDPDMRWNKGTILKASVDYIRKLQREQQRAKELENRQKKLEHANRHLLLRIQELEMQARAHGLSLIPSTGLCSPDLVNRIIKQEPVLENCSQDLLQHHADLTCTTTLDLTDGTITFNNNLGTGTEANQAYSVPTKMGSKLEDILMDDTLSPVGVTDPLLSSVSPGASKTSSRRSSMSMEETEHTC
# [26] = cells
# [27] = target: T4, Oxysterols receptor LXR-beta (Homo sapiens, UniProt P55055); format: functional, cell-based;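 note: Cell-based luminescence dose-response assay of agonist activity at LXR, run as a confirmatory counterscreen to a daf-12 agonist screen; HEK293 cells with Gal4-LXR fusion and GAL4-driven luciferase reporter; agonist potency from rising luciferase signal of a Gal4-LXR reporter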
# T4 sequence (P55055 whole entry): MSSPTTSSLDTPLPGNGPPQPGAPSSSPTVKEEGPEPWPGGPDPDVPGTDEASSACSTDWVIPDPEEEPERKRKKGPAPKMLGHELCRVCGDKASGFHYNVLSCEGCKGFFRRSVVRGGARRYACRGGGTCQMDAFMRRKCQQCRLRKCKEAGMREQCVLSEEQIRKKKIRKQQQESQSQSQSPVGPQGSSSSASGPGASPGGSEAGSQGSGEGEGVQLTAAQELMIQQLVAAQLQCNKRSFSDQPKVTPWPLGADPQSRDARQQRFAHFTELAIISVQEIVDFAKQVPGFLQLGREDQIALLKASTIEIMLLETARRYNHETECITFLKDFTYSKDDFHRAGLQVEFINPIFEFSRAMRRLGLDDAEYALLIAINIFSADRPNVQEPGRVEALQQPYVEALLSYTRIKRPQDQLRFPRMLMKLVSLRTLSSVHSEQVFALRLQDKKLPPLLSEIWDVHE
# [28] = target: Induced myeloid leukemia cell differentiation protein Mcl-1 (Homo sapiens, UniProt Q07820); format: functional
# Induced myeloid leukemia cell differentiation protein Mcl-1, sequence (Q07820 whole entry): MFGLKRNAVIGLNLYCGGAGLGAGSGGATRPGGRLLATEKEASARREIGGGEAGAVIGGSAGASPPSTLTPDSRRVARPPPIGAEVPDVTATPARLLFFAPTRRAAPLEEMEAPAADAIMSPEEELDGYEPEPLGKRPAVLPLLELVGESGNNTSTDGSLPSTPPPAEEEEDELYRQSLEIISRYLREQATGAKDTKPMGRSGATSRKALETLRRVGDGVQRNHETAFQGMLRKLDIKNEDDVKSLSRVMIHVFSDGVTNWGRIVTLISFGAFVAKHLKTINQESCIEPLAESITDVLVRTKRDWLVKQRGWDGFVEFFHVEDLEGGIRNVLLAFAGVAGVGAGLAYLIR
# Paired box protein Pax-8, sequence (Q06710 whole entry): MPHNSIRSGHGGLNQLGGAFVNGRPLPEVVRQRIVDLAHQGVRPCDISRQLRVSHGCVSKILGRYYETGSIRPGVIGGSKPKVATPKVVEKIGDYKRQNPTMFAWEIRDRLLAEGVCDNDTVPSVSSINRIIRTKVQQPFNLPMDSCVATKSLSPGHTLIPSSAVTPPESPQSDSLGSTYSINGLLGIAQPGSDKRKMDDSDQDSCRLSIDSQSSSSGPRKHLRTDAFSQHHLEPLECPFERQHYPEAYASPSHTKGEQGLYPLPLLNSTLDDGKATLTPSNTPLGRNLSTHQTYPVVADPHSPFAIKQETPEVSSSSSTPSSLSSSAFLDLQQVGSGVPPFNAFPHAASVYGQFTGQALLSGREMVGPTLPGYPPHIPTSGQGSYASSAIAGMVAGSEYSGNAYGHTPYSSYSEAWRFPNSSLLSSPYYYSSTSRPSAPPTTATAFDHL
# Mitogen-activated protein kinase 10, sequence (P53779 whole entry): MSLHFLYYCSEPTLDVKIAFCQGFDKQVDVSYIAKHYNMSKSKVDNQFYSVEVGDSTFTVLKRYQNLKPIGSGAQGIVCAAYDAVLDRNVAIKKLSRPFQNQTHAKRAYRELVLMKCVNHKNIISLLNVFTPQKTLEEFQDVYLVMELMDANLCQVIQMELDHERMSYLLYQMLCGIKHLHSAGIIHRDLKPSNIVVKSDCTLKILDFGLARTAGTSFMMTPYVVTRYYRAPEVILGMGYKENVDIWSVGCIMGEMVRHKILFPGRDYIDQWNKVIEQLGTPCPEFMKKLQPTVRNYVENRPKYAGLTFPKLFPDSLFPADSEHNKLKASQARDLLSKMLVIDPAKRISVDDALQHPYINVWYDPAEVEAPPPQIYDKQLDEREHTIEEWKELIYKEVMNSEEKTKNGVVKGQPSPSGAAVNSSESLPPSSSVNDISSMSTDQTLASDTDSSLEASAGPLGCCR
# Luciferin 4-monooxygenase, sequence (P08659 whole entry, the tested form may be a part): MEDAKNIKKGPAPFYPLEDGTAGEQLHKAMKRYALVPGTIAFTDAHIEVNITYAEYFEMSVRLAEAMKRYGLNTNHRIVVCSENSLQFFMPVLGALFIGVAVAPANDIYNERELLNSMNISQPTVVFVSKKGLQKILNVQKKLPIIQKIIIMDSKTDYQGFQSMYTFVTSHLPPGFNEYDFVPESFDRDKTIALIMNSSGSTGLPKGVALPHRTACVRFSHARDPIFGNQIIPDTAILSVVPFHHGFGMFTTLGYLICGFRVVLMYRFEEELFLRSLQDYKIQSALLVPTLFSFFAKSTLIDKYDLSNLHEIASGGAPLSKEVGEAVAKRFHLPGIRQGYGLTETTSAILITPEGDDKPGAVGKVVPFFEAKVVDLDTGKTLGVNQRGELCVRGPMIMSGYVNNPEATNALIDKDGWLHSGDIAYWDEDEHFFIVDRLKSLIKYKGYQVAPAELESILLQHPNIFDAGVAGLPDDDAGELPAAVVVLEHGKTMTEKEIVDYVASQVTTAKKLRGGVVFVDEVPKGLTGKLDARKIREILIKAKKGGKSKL
smiles,measurement,setting,value
COc1ccccc1-c1ccc(OCCCN2CCC(C(O)(c3ccccc3)c3ccccc3)CC2)cc1,AC50,[1],10.2 µM (active)
same,AC50,[2],5.11 µM (active)
same,AC50,[3],6.44 µM (active)
same,AC50,[4],16.3 µM (active)
same,AC50,[5],18.1 µM (active)
same,AC50,[6],9.63 µM (active)
same,AC50,[7],28.1 µM (active)
COc1ccccc1C#Cc1ccc2c(c1)O[C@H](CN(C)Cc1cccnc1)[C@H](C)CN([C@H](C)CO)S2(=O)=O,AC50,[1],8.98 µM (active)
same,AC50,[8],31.8 µM (active)
O=C(Nc1cc(C(F)(F)F)ccc1-n1cncn1)c1ccc([N+](=O)[O-])o1,IC50,[9],19.8 µM (active)
same,IC50,[10],11 µM (active)
same,CC50,[11],8.89 µM (active)
same,CC50,[12],37.3 µM (active)
same,CC50,[13],6.96 µM (active)
COc1cc(CC(=O)Nc2nccs2)cc(OC)c1OC,EC50,[14],> 160 µM (inactive)
same,EC50,[15],> 38 µM (not active)
same,IC50,[16],> 93.1 µM (not active)
O=C(CNc1cccc2ccccc12)N/N=C/C=C/c1ccco1,IC50,[17],> 50 µM (not active)
O=C(O)c1ccc(N/N=C/c2ccc3nccnc3c2)cc1,EC50,[18],7.25 µM (active)
same,AC50,[1],2.07 µM (active)
same,AC50,[19],0.685 µM (active)
same,AC50,[20],6.51 µM (active)
same,AC50,[21],2.97 µM (active)
same,EC50,[22],3.43 µM (active)
same,AC50,[23],46.5 µM (active)
same,AC50,[7],30.5 µM (active)
same,AC50,[24],2.13 µM (active)
same,AC50,[25],0.696 µM (active)
Cc1ccc(-n2nc3cc(C)c(N)cc3n2)cc1,EC50,[26],> 67.5 µM (inactive)
same,EC50,[27],> 67.5 µM (inactive)
same,IC50,[28],7.02 µM (active)
same,IC50,[17],> 50 µM (not active)
O=C1C(/C=N/c2ccccc2O)=C(O)c2ccccc21,EC50,[26],> 67.5 µM (inactive)
same,EC50,[27],> 67.5 µM (inactive)
same,IC50,[16],23.1 µM (not active)

# Source: ChEMBL document CHEMBL1201862, “PubChem BioAssay data set” (2004)
